Results from PMC7804942, “The amphibian peptide Yodha is virucidal for Zika and dengue viruses” (Scientific Reports, 2021).
Where a SMILES comes first, the peptide text is derived from it.

Tested on: ZIKV
Assay: Transmission electron microscopy of peptide-treated ZIKV
Set-up: species or system Zika virus
Settings: 200 µM peptide, 10 min, negative staining TEM
Description: To test this, we treated ZIKV with Yodha peptide or control peptide for 10 min and analyzed virus particles by electron microscopy.
(A) TEM micrographs of ZIKV treated with OVA (control) or Yodha peptide are shown. ZIKV were incubated with the peptides at 200 µM for just 10 min, fixed with paraformaldehyde and then processed for electron microscopy. Yodha treatment led to loss of morphology and aggregation of virus particles. (B) Enlarged images of ZIKV treated with control or Yodha peptide from (A) are shown. The data is representative of three experiments performed.
ZIKV samples were fixed with 4% buffered paraformaldehyde before negative staining. 5 µl of Zika sample was then deposited onto a 400-mesh carbon-coated copper grid that had been treated by glow-discharged for 20 s and allowed 5 min for the sample to settle in a covered glass dish. The grids with samples were then quickly washed by touching the sample side on two drops double distilled water, wick with filter paper, and then stained with 1% phosphotungstic acid (PTA) for 15 s before removing PTA with filter paper. Zika virus was imaged on a JEOL JEM-1400 transmission electron microscope (JEOL Ltd., Tokyo, Japan) equipped with a Gatan US1000 CCD camera (Gatan, Pleasanton, CA).

## CC[C@H](C)[C@H](NC(=O)[C@@H](NC(=O)CNC(=O)[C@H](CC(C)C)NC(=O)[C@H](Cc1ccccc1)NC(=O)[C@H](Cc1ccccc1)NC(=O)[C@H](CC(C)C)NC(=O)[C@H](CC(C)C)NC(=O)[C@H](CC(C)C)NC(=O)[C@H](CCSC)NC(=O)[C@@H](N)CO)[C@@H](C)O)C(=O)N[C@@H](CO)C(=O)N[C@@H](CC(C)C)C(=O)N[C@@H](CO)C(=O)N[C@@H](CC(C)C)C(=O)N[C@@H](CS)C(=O)N[C@@H](CCC(N)=O)C(=O)N[C@@H](CC(=O)O)C(=O)N[C@@H](CC(=O)O)C(=O)N[C@@H](CCC(N)=O)C(=O)N[C@@H](CCC(=O)O)C(=O)N[C@@H](CCCNC(=N)N)C(=O)N[C@@H](CS)C(=O)O [Yodha] (H-SMLLLFFLGTISLSLCQDDQERC-OH; N-terminus and C-terminus assumed)
  virus particle integrity by electron microscopy: disruption of viral particles
